According to PubChem BioAssay AID248 (DTP/NCI, 2004):
Toxic doses and inconclusive results are not listed. Rule as the data show it: active = T/C of 150% or more; inactive = T/C below 125%.

Test system: L1210 leukemia ip in BDF1 mice, survival T/C
Assay: NCI In Vivo Anticancer Drug Screen. Data for tumor model L1210 Leukemia (intraperitoneal) in B6D2F1 (BDF1) mice
Conditions: endpoint: mean survival time, higher = longer survival
Summary of the method: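 Read-out is survival time, reported as the treated-group measurement over the vehicle-control measurement.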

[1] = dose: 100.0 mg/kg/injection, schedule: Q01DX001 (ip), vehicle: saline
[2] = dose: 200.0 mg/kg/injection, schedule: Q01DX001 (ip), vehicle: saline
[3] = dose: 400.0 mg/kg/injection, schedule: Q01DX001 (ip), vehicle: saline

Measured: T/C

O=C1CC(=O)NC(=S)N1
inactive: dose: 100.0 mg/kg/injection, schedule: Q04DX003 (ip), vehicle: saline with Tween-80 101 % of control | dose: 200.0 mg/kg/injection, schedule: Q04DX003 (ip), vehicle: saline with Tween-80 93 % of control | dose: 400.0 mg/kg/injection, schedule: Q04DX003 (ip), vehicle: saline with Tween-80 93 % of control

CN1CCS(=O)(=O)C1=O
inactive: dose: 9.5 mg/kg/injection, schedule: Q01DX001 (ip), vehicle: saline 98 % of control | dose: 19.0 mg/kg/injection, schedule: Q01DX001 (ip), vehicle: saline 98 % of control | dose: 38.0 mg/kg/injection, schedule: Q01DX001 (ip), vehicle: saline 109 % of control

CC(=S)Oc1cccc(C)c1
inactive: dose: 50.0 mg/kg/injection, schedule: Q01DX001 (ip), vehicle: carboxymethylcellulose (CMC) 102 % of control | dose: 100.0 mg/kg/injection, schedule: Q01DX001 (ip), vehicle: carboxymethylcellulose (CMC) 98 % of control | dose: 200.0 mg/kg/injection, schedule: Q01DX001 (ip), vehicle: carboxymethylcellulose (CMC) 96 % of control | dose: 400.0 mg/kg/injection, schedule: Q01DX001 (ip), vehicle: carboxymethylcellulose (CMC) 104 % of control

COc1cccc(-n2cc(C#N)c3c(C)cc(C)nc32)c1
inactive: [1] 87 % of control | [2] 91 % of control | [3] 87 % of control

Nc1cnnc(N)c1Cl
inactive: dose: 5.0 mg/kg/injection, schedule: Q01DX001 (ip), vehicle: saline 102 % of control | dose: 10.0 mg/kg/injection, schedule: Q01DX001 (ip), vehicle: saline 113 % of control | dose: 20.0 mg/kg/injection, schedule: Q01DX001 (ip), vehicle: saline 104 % of control | dose: 40.0 mg/kg/injection, schedule: Q01DX001 (ip), vehicle: saline 95 % of control

O=C(Nc1cccc(F)c1)N(Cc1ccccc1)c1ccccc1
inactive: dose: 100.0 mg/kg/injection, schedule: Q01DX009 (ip), vehicle: saline with Tween-80 91 % of control | dose: 200.0 mg/kg/injection, schedule: Q01DX009 (ip), vehicle: saline with Tween-80 91 % of control | dose: 400.0 mg/kg/injection, schedule: Q01DX009 (ip), vehicle: saline with Tween-80 98 % of control

CCCCCCCCCCCSSCCCCCCCCCCC
inactive: dose: 100.0 mg/kg/injection, schedule: Q04DX003 (ip), vehicle: other 96 % of control | dose: 200.0 mg/kg/injection, schedule: Q04DX003 (ip), vehicle: other 96 % of control | dose: 400.0 mg/kg/injection, schedule: Q04DX003 (ip), vehicle: other 97 % of control

O=c1[nH][nH]c(=O)c2nc3ccccc3nc12
inactive: dose: 100.0 mg/kg/injection, schedule: Q01DX009 (ip), vehicle: Klucel (hydroxypropylcellulose) (HPC) 97 % of control | dose: 100.0 mg/kg/injection, schedule: Q04DX003 (ip), vehicle: Klucel (hydroxypropylcellulose) (HPC) 94 % of control | dose: 200.0 mg/kg/injection, schedule: Q01DX009 (ip), vehicle: Klucel (hydroxypropylcellulose) (HPC) 100 % of control | dose: 200.0 mg/kg/injection, schedule: Q04DX003 (ip), vehicle: Klucel (hydroxypropylcellulose) (HPC) 97 % of control | dose: 400.0 mg/kg/injection, schedule: Q01DX009 (ip), vehicle: Klucel (hydroxypropylcellulose) (HPC) 93 % of control | dose: 400.0 mg/kg/injection, schedule: Q04DX003 (ip), vehicle: Klucel (hydroxypropylcellulose) (HPC) 92 % of control

Nc1ccc(O)c2ncccc12
inactive: dose: 6.25 mg/kg/injection, schedule: Q01DX009 (ip), vehicle: saline 95 % of control | dose: 12.5 mg/kg/injection, schedule: Q01DX009 (ip), vehicle: saline 92 % of control | dose: 50.0 mg/kg/injection, schedule: Q01DX001 (ip), vehicle: saline 98 % of control

C=C1c2ccccc2N(C)C1(COc1ccc(Cl)cc1)OC(=O)c1cccc(Cl)c1 (stereo unspecified)
inactive: dose: 100.0 mg/kg/injection, schedule: Q04DX002 (ip), vehicle: saline 88 % of control | dose: 200.0 mg/kg/injection, schedule: Q04DX002 (ip), vehicle: saline 98 % of control | dose: 400.0 mg/kg/injection, schedule: Q04DX002 (ip), vehicle: saline 98 % of control

COc1ccc2nc(C)c(COC(C)=O)cc2c1
inactive: dose: 100.0 mg/kg/injection, schedule: Q04DX003 (ip), vehicle: saline 100 % of control | dose: 200.0 mg/kg/injection, schedule: Q04DX003 (ip), vehicle: saline 98 % of control | dose: 400.0 mg/kg/injection, schedule: Q04DX003 (ip), vehicle: saline 105 % of control

CCCCC(=O)N/N=C/c1ccc(NC(C)=O)cc1
inactive: [1] 102 % of control | [2] 102 % of control | [3] 102 % of control
